How the values were obtained:
B6CBAF1 mice = assay: Oral induction of T cell non-responsiveness, protocol 1; format: in vivo, mouse; settings: fed on days -7, -5, -2
Procedure: The draining lymph nodes (i.e., inguinal, paraaortic and popliteal), the mesenteric lymph nodes, and the spleen were surgically removed from the animals 10-12 days after antigen challenge. Cells from these tissues were suspended by being forced through a stainless steel mesh with a glass pestle. The cells were washed twice in RPMI 1640 medium with a 1% fetal calf serum (FCS) before culture. All cells were cultured at 37° C. in 5% CO2 in RPMI 1640 with 10% FCS (no. F4884, Sigma), 100 units of penicillin G per ml, 10 μg of streptomycin per ml, 10 mM glutamine, and 0.05 mM 2-mercaptoethanol. […]. Cells were cultured in triplicate, 0.2 ml per well at 4×10^6 cells per ml, in 96-well plates. Supernatants were removed from the wells after 24 hours to test for the production of IL-2 or IL-3 and were frozen to kill any transferred cells or removed after 48 hours for testing IL-4 production. Separate triplicate wells were incubated for 96 hours for the proliferation assay. The supernatants were kept at […] for several days to kill transferred cells.
Lymph node of spleen cells were plated in a flat bottom 96-well plate (4×10^5/well) in 100 μl medium. Peptide or recombinant protein or control solution (100 μl) is added to each well and the cells allowed to incubate for 1 day at 37° C. On day 2, the cultures were pulsed with [^3H] thymidine (1 μCi per well in 50 μl of medium; 1 Ci=37 GBq) for 4 to 6 hours, and on day 3, the plates were harvested with a 96-well harvester (Tomtec, Orange, Conn.) and counted on a Betaplate scintillation counter (Pharmacia, Upsaala Sweden).
To measure IL-2, supernatants were tested after thawing for the ability to support the growth of an IL-2-dependent line such as CTLL-2 (University of California, Berkeley). […] After a 24 hour incubation, the cells were pulsed with [^3H] thymidine (1 μCi per well in 50 μl of medium; 1 Ci=37 GBq) for 4 to 6 hours and the plates were harvested with a 96-well harvester (Tomtec, Orange, Conn.) and counted on a Betaplate scintillation counter (Pharmacia, Upsaala Sweden).

[1] = system: BDF1 mice preimmunized with TRFP; assay: Peptide Y tolerization of mice preimmunized with TRFP, IL-2 (CTLL-2) and IL-4 (CT4S) production; format: in vivo, mouse
Procedure: BDF1 mice were each immunized with 100 μg TRFP in 200 μl IFA (Incomplete Freund's Adjuvant) in a single site intraperitoneally. After four months, the mice were bled and grouped according to their anti-TRFP IgG antibody levels as follows. The mice were warmed with an infra-red lamp and bled through one of the tail veins by nicking the vein with a razor blade (Gilette Platinum Plus). The blood was allowed to drip into a serum separating tube (Microtainer, Becton-Dickenson) and allowed to clot. The sera was then separated from the clot by centrifugation at 13,000 rpm. The sera was stored at −20° C. until use. The sera was assayed for TRFP-specific IgG by ELISA. […] After rinsing, the bound mouse antibody was detected by incubation with biotinylated goat anti-mouse IgG (Southern Biotechnology Associates) diluted 1/10000 in PBS. […] The resulting O.D. values were read by an ELISA reader (Bio-Tek modal #310) at 450 nm to quantitate the complexes bound to TRFP protein on the plates. […]
There are several phenotypic classes of T helper cells which can be differentiated by their production of lymphokines. […] IL-2 production is easily measured from primary in vitro lymph node cultures through the IL-2 dependent CTLL-2 cell line. Similarly, IL-4 can be measured with cultures of the IL-4 dependent CT4S cells (provided by W. Paul). […] The plates were harvested and counted identically to the IL-2 assays detailed above. […]

“peptide Y: amino acid residues 29-55 from chain 1 of TRFP (SEQ. ID. NO: 18) (KALPVVLENARILKNCVDAKMTEEDKE)” was tested, and the “spleen cell IL-2 production” value (B6CBAF1 mice) was “limited in their ability to produce IL-2”, the spleen cell proliferation (B6CBAF1 mice) was “no effect on spleen cell proliferation” and the “proliferation of and production of IL-2 by draining and mesenteric lymph node cells” value (B6CBAF1 mice; challenge 100 μg in CFA) was “decreased”. The “tolerization of peptide Y specific T cells (IL-2)” value ([1]; 300 μg s.c. days 0 and 5, animals preimmunized with TRFP) was “can be tolerized” and the “peptide specific production of both IL-2 and IL-4 in secondary in vitro cultures” value ([1]; pooled lymph node cells, stimulation index) was “decreased”.
